Source: patent US8404869B2, “Phenanthrenequinone-based compound and pharmaceutical composition containing the same for the treatment or prevention of disease involving metabolic syndrome” (Mazence Inc., priority 2007, dated 2013)

Experiments:
AMPK = assay: Determination of AMPK activation in differentiated C2C12 myoblast cells (SAMS peptide, [γ-32P]ATP); type: cell-based; settings: C2C12 myoblast cells treated at 5 μg/ml; DMSO (0.5%) control = 1
Experimental: Myoblast cells, C2C12, were cultured in DMEM containing 10% bovine calf serum. When a cell density reached a range of about 85% to 90%, the culture medium was replaced with a medium containing 1% bovine calf serum to induce differentiation of cells. The thus-differentiated myoblast cells were treated with samples synthesized in Examples 1 through 16 at a concentration of 5 μg/ml, and compared with a control group. Enzymatic activity of AMPK was determined as follows. Firstly, C2C12 cells were lysed to obtain protein extracts and then ammonium sulfate was added to a final concentration of 30%, thereby precipitating proteins. Protein precipitates were dissolved in a buffer (62.5 mM Hepes, pH 7.2, 62.5 mM NaCl, 62.5 mM NaF, 1.25 mM Na pyrophosphate, 1.25 mM EDTA, 1 mM DTT, 0.1 mM PMSF, and 200 μM AMP). Thereafter, 200 μM SAMS peptide (HMRSAMSGLHLVKRR: the underlined serine residue is a phosphorylation site, as an AMPK phosphorylation site of acetyl-CoA carboxylase) and [γ-32P]ATP were added thereto and reactants were reacted for 10 minutes at 30° C. This was followed by spotting of the resulting reaction solution on p81 phosphocellulose paper. The p81 paper was washed with a 3% phosphoric acid solution and radioactivity thereof was measured. For each reaction condition, reactions involving no SAMS peptide were also conducted and basic values were subtracted from the thus-observed values.

[1] = test system: C57BL/6JL Lep ob/Lep ob mice; assay: Weight loss effects in obese mice (ob/ob); type: in vivo; settings: mixed-feed of 0.4% for 18 days
Experimental: (§1) 10-week-old C57BL/6JL Lep ob/Lep ob male mice having obesity characteristics and predisposition were purchased from Daehan Biolink Co., Ltd. (Chungchongbuk-do, Korea). Animals were raised in a breeding room maintained at a temperature of 23° C., 55% humidity, illumination of 300 to 500 lux, a 12-h light/dark (L/D) cycle, and ventilation of 10 to 18 times/hr. Animals were fed ad libitum pellets of Purina Rodent Laboratory Chow 5001 (purchased from Purina Mills Inc., St. Louis, Mo., USA) as a solid feed for experimental animals and tap water as drinking water. Mice were allowed to acclimate to new environment of the breeding room for two weeks and were then administered some pyrano-3,4-phenanthrenequinone or furano-3,4-naphthoquinone derivatives synthesized according to the present invention at mixed-feed of 0.4% for 18 days. Observation was made on changes in body weight, blood glucose and dietary intake, with respect to a time course of administration. After administration was complete, confirm changes in glucose, lipid and enzyme levels in blood.
(§2) For comparison, the same experiments were carried out for the subject (negative control group) to which the active ingredient was not administered, and subject (positive control group) to which Cryptotanshinone, extracted from Danshen by a method as set forth in Example 1 of the Korean Patent Application No. 2004-0116339 by the present applicant, was administered by the above-mentioned condition.
Herein, ‘Increase in BW’ is calculated as the following; Increase in BW=(Final BW−Initial BW)/Initial BW×100

[2] = test system: C57BL/6JL Lep ob/Lep ob mice; assay: Blood biomarkers (lipid, glucose, enzyme levels) in ob/ob mice; type: in vivo; parameters: unit not given here; settings: after mixed-feed of 0.4% for 18 days, listed as Ex. 3
Experimental: as §1, §2

In the case of CC1CC2=C(O1)c1ccc3c(c1C(=O)C2=O)CCCC3(C)C (single isomer, unassigned) [Example 3, 2,6,6-Trimethyl-1,2,6,7,8,9-hexahydro-phenanthro[1,2-b]furan-10,11-dione], the AMPK fold (AMPK) is reported as 2.2 fold, the “Increase in BW” value ([1]; (Final BW−Initial BW)/Initial BW×100) is reported as −11.9% and the “Final BW” value ([1]; ob/ob male mice) is reported as 46.1 ± 2.1 g. The GOT [2] was 247.5, the GPT [2] was 160.0 and the HDL chol [2] was 42.5. It also gave an LDL chol [2] of 12.00, a T. chol [2] of 134.0 and a glucose [2] of 132. The triglyceride [2] was 61.7.
